The results in this text go back to US7071226B1, “Amino-functionalized 1,2,4-trioxanes useful as antimalarial agents and process for preparation thereof” (Council of Scientific and Industrial Research, priority 2004, dated 2006).

This assay has as its system multidrug resistant strain of Plasmodium yoelii Nigeriensis. The experiment in a line: Antimalarial activity against multidrug resistant P. yoelii in Swiss mice (4-day treatment, observed till day 28). In kind it is in vivo. As to conditions: for inhibition in vivo at 24 mg/kg/day / inhibition in vivo at 48 mg/kg/day / responders at 24 mg/kg/day / responders at 48 mg/kg/day / inhibition in vivo at 96 mg/kg/day / responders at 96 mg/kg/day / inhibition in vivo at 12 mg/kg/day / responders at 12 mg/kg/day: Plasmodium yoelii; for inhibition in vivo at 24 mg/kg/day / inhibition in vivo at 48 mg/kg/day / inhibition in vivo at 96 mg/kg/day / inhibition in vivo at 12 mg/kg/day: 96 h, read-out: % Suppression on Day 4; for responders at 24 mg/kg/day / responders at 48 mg/kg/day / responders at 96 mg/kg/day / responders at 12 mg/kg/day: 672 h. As for the experimental part:
The antimalarial activity of the test compounds was evaluated in rodent using multidrug resistant strain of Plasmodium yoelii Nigeriensis in Swiss mice.
Random bred Swiss mice of either sex (20±2 gm) were inoculated intraperitoneally with 1×10^5 P. yoelii (MDR) parasites on day zero. Treatments with test compounds were administered to group of 5 mice each at different dose levels ranging between 12–96 mg/kg/day. Treatment was administered in groundnut oil intramuscularly and orally for 4 consecutive days (day 0–3). Blood smears from experimental mice were observed on day 4 and 7, day 10 and thereafter at regular intervals till day 28 or death of animal. Parasitaemia level on day 4 was compared with vehicle control group and percent suppression of parasitaemia in treated groups was calculated. […] The dose at which no parasitaemia develop during the observation period was reported as curative dose.

Where [1] appears, read: po, read-out: Mice alive on day-28.
The mark [2] stands for this setting: Swiss mice, 96 mg/kg/day, im, day 0-3.
The mark [3] stands for this setting: Swiss mice, 96 mg/kg/day, im, day 0-3, in groundnut oil.
Where [4] appears, read: po, Swiss mice, 96 mg/kg/day, oral, day 0-3, in groundnut oil.
[5] abbreviates: po, Swiss mice, 96 mg/kg/day, oral, day 0-3, read-out: Mice alive on day-28 (converted).
[6] abbreviates: im, Swiss mice, 96 mg/kg/day, im, day 0-3, in groundnut oil.
Where [7] appears, read: im, Swiss mice, 96 mg/kg/day, im, day 0-3, read-out: Mice alive on day-28 (converted).
Setting [8] is: po, Swiss mice, 48 mg/kg/day, oral, day 0-3, in groundnut oil.
Setting [9] is: po, Swiss mice, 48 mg/kg/day, oral, day 0-3, read-out: Mice alive on day-28 (converted).
Where [10] appears, read: Swiss mice, 48 mg/kg/day, oral, day 0-3, 48 mg/kg/day.
Setting [11] is: po, Swiss mice, oral, day 0-3, in groundnut oil.
[12] abbreviates: po, Swiss mice, 24 mg/kg/day, oral, day 0-3, in groundnut oil.
[13] abbreviates: po, Swiss mice, oral, day 0-3, read-out: Mice alive on day-28.
Setting [14] is: po, Swiss mice, 24 mg/kg/day, oral, day 0-3, read-out: Mice alive on day-28 (converted).
Setting [15] is: Swiss mice, 48 mg/kg/day, oral, day 0-3, in groundnut oil.
The mark [16] stands for this setting: Swiss mice, 96 mg/kg/day, oral, day 0-3.
Setting [17] is: Swiss mice, 96 mg/kg/day, oral, day 0-3, in groundnut oil.
The mark [18] stands for this setting: Swiss mice, 24 mg/kg/day, oral, day 0-3, in groundnut oil.

Read-outs that look alike come from different tables or passages of the source.

As to `CCN(CC)CCCC(C)Nc1ccnc2cc(Cl)ccc12` (centres unmarked) [Chloroquine, reference compound], for the setting “po”, the inhibition in vivo at 24 mg/kg/day was 100% and the inhibition in vivo at 48 mg/kg/day stood at 100%. In addition, under setting [1], the responders at 24 mg/kg/day stood at 0% and the responders at 48 mg/kg/day was 40%.

`C=C(c1ccccc1)C1COC2(CCC(=O)CC2)OO1` (centres unmarked) [Compound 3a, 3-(1-Phenyl-Vinyl)-1,2,5-Trioxaspiro[5.5]undec-9-one]: under setting [2], the “Mice alive on day-28” value is on record as 0/5. The “% Suppression on Day 4” value under setting [3] turned out to be 99%.

For `C=C(c1ccc(-c2ccccc2)cc1)C1COC2(CCC(=O)CC2)OO1` (centres unmarked) [Compound 3b, 3-(1-Biphenyl-4yl-Vinyl)-1,2,5-Trioxaspiro[5.5]undec-9-one], under setting [2], the “Mice alive on day-28” value is reported as 1/5. Also, the “% Suppression on Day 4” value under setting [3] came to 100%.

Turning to `C=C(c1ccc(Cl)cc1)C1COC2(CCC(=O)CC2)OO1` (centres unmarked) [Compound 3c, 3-[1-(4-Chloro-Phenyl)-Vinyl]-1,2,5-Trioxa-Spiro[5.5]undecan-9-one], the inhibition in vivo at 96 mg/kg/day under setting [4] is 100%. Also, the responders at 96 mg/kg/day under setting [5] is 0%.

On to `C=C(c1ccccc1)C1COC2(CCC(Nc3ccc(Cl)cc3)CC2)OO1` (centres unmarked) [Compound 4aa, (4-Chloro-Phenyl)-[3-(1-Phenyl-Vinyl)-1,2,5-Trioxa-Spiro[5.5]undec-9-yl]-Amine], for which the inhibition in vivo at 96 mg/kg/day by setting is: under setting [6], 71%; under setting [4], 100%. Besides, the responders at 96 mg/kg/day runs as follows: under setting [7], 40%; under setting [5], 100%. Also, under setting [8], the inhibition in vivo at 48 mg/kg/day is 100%. For the same molecule, the responders at 48 mg/kg/day under setting [9] is 60%.

Consider `C=C(c1ccccc1)C1COC2(CCC(Nc3ccccc3-c3ccccc3)CC2)OO1` (centres unmarked) [Compound 4ab, Biphenyl-2-yl-[3-(1-Phenyl-Vinyl)-1,2,5-Trioxa-Spiro[5.5]undec-9-yl]Amine], for which the inhibition in vivo at 48 mg/kg/day under setting [8] was 100%. Further, under setting [4], the inhibition in vivo at 96 mg/kg/day was 100%. Further, the responders at 96 mg/kg/day under setting [5] was 100%. Besides, the “Mice alive on day-28” value under setting [10] is listed as 0/5.

`C=C(c1ccccc1)C1COC2(CCC(Nc3ccccc3-c3ccccc3)CC2)OO1` (centres unmarked) [Compound 4ac, Biphenyl-2-yl-[3-(1-Phenyl-Vinyl)-1,2,5-Trioxa-Spiro[5.5]undec-9-yl]Amine]: the inhibition in vivo at 96 mg/kg/day under setting [6] stood at 74%. Also, the responders at 96 mg/kg/day under setting [7] was 0%. For the same molecule, the inhibition in vivo at 12 mg/kg/day under setting [11] worked out at 100%. For the same molecule, the inhibition in vivo at 24 mg/kg/day under setting [12] stood at 100%. Under setting [13], the responders at 12 mg/kg/day stood at 0%. For the same molecule, the responders at 24 mg/kg/day under setting [14] was 40%. The “% Suppression on Day 4” value by setting is: under setting [15], 100%; under setting [17], 100%. Moreover, the “Mice alive on day-28” value is reported as 5/5 under setting [10] and 5/5 under setting [16].

Take `C=C(c1ccccc1)C1COC2(CCC(Nc3ccc(-c4ccccc4)cc3)CC2)OO1` (centres unmarked) [Compound 4ad, Biphenyl-4-yl-[3-(1-Phenyl-Vinyl)-1,2,5-Trioxa-Spiro[5.5]undec-9-yl]Amine]: the inhibition in vivo at 12 mg/kg/day under setting [11] came to 99%. Moreover, under setting [12], the inhibition in vivo at 24 mg/kg/day was 100%. For the same molecule, the inhibition in vivo at 48 mg/kg/day under setting [8] was 100%. Further, the inhibition in vivo at 96 mg/kg/day under setting [4] turned out to be 100%. Further, under setting [13], the responders at 12 mg/kg/day amounted to 0%. Moreover, the responders at 24 mg/kg/day under setting [14] was 60%. In addition, under setting [9], the responders at 48 mg/kg/day is 100%. Besides, the responders at 96 mg/kg/day under setting [5] was 100%.

For `C=C(c1ccccc1)C1COC2(CCC(Nc3ccc4c(c3)-c3ccccc3C4)CC2)OO1` (centres unmarked) [Compound 4ae], the “Mice alive on day-28” value under setting [16] is 5/5. Besides, under setting [17], the “% Suppression on Day 4” value turned out to be 100%.

As to `C=C(c1ccccc1)C1COC2(CCC(Nc3cccc(C(F)(F)F)c3)CC2)OO1` (centres unmarked) [Compound 4ah, [3-(1-Phenyl-Vinyl)-1,2,5-Trioxa-Spiro[5.5]undec-9-yl]-(3-Trifluoromethyl-Phenyl)-Amine], the inhibition in vivo at 96 mg/kg/day was 83% under setting [6] and 100% under setting [4]. Moreover, the responders at 96 mg/kg/day is 0% under setting [7] and 100% under setting [5]. Also, the inhibition in vivo at 24 mg/kg/day under setting [12] turned out to be 100%. In addition, the inhibition in vivo at 48 mg/kg/day under setting [8] was 100%. For the same molecule, the responders at 24 mg/kg/day under setting [14] was 20%. Besides, the responders at 48 mg/kg/day under setting [9] is 100%.

Regarding `C=C(c1ccc(-c2ccccc2)cc1)C1COC2(CCC(Nc3ccc(Cl)cc3)CC2)OO1` (centres unmarked) [Compound 4ba, [3-(1-Biphenyl-4-yl-Vinyl)-1,2,5-Trioxa-Spiro[5.5]undec-9-yl]-(4-Chloro-Phenyl)-Amine], under setting [4], the inhibition in vivo at 96 mg/kg/day amounted to 100%. The responders at 96 mg/kg/day under setting [5] was 100%.

As for `C=C(c1ccc(-c2ccccc2)cc1)C1COC2(CCC(Nc3ccccc3C(F)(F)F)CC2)OO1` (centres unmarked) [Compound 4bg, [3-(1-Biphenyl-4-yl-vinyl)-1,2,5-trioxa-spiro[5.5]undec-9-yl]-(2-trifluoromethyl-phenyl)-amine], the inhibition in vivo at 96 mg/kg/day under setting [4] was determined as 100%. Besides, the responders at 96 mg/kg/day under setting [5] was 40%.

As for `C=C(c1ccc(Cl)cc1)C1COC2(CCC(Nc3ccc(C)cc3)CC2)OO1` (centres unmarked) [Compound 4cb, {3-[1-(4-Chloro-Phenyl)-Vinyl]-1,2,5-Trioxa-Spiro[5.5]undec-9-yl}-p-Tolyl-Amine], the inhibition in vivo at 48 mg/kg/day under setting [8] was determined as 100%. For the same molecule, under setting [9], the responders at 48 mg/kg/day was 100%.

On to `C=C(c1ccc(Cl)cc1)C1COC2(CCC(Nc3ccc(Cl)cc3)CC2)OO1` (centres unmarked) [Compound 4cc], for which the “Mice alive on day-28” value is 4/5 (Swiss mice, 24 mg/kg/day, oral, day 0-3) and 5/5 (Swiss mice, 48 mg/kg/day, oral, day 0-3). For the same molecule, the “% Suppression on Day 4” value under setting [18] was 100% and the “% Suppression on Day 4” value under setting [15] came out at 100%.

Regarding `C=C(c1ccc(Cl)cc1)C1COC2(CCC(Nc3cc(Cl)cc(Cl)c3)CC2)OO1` (centres unmarked) [Compound 4ce, {3-[1-(4-Chloro-phenyl)-vinyl]-1,2,5-trioxa-spiro[5.5]undec-9-yl}-(3,5-dichloro-phenyl)-amine], under setting [12], the inhibition in vivo at 24 mg/kg/day is 100%. Moreover, the inhibition in vivo at 48 mg/kg/day under setting [8] was determined as 100%. Under setting [14], the responders at 24 mg/kg/day was 40%. In addition, under setting [10], the “Mice alive on day-28” value is 4/5.

In the case of `C=C(c1ccc(Cl)cc1)C1COC2(CCC(Nc3cc(Cl)cc(Cl)c3)CC2)OO1` (centres unmarked) [Compound 4cf, {3-[1-(4-Chloro-phenyl)-vinyl]-1,2,5-trioxa-spiro[5.5]undec-9-yl}-(3,5-dichloro-phenyl)-amine], the “% Suppression on Day 4” value reads like this: under setting [18], 100%; under setting [15], 100%. The “Mice alive on day-28” value (Swiss mice, 24 mg/kg/day, oral, day 0-3, 24 mg/kg/day) is reported as 1/5 and the “Mice alive on day-28” value under setting [10] is given as 2/5.

Regarding `C=C(c1ccc(Cl)cc1)C1COC2(CCC(Nc3cccc4ccccc34)CC2)OO1` (centres unmarked) [Compound 4ch, {3-[1-(4-Chloro-phenyl)-vinyl]-1,2,5-trioxa-spiro[5.5]undec-9-yl}-naphthalen-1-yl-amine], under setting [4], the inhibition in vivo at 96 mg/kg/day was found to be 100%. The responders at 96 mg/kg/day under setting [5] is 40%.

In the case of `C=C(c1ccc(Cl)cc1)C1COC2(CCC(Nc3ccccc3-c3ccccc3)CC2)OO1` (centres unmarked) [Compound 4cj, Biphenyl-2-yl-{3-[1-(4-Chloro-Phenyl)-Vinyl]-1,2,5-Trioxa-Spiro[5.5]undec-9-yl}-Amine], the inhibition in vivo at 24 mg/kg/day under setting [12] is 100%. Moreover, the inhibition in vivo at 48 mg/kg/day under setting [8] was 100%. Moreover, the responders at 24 mg/kg/day under setting [14] is 40%. For the same molecule, the responders at 48 mg/kg/day under setting [9] was 100%.

With `C=C(c1ccc(Cl)cc1)C1COC2(CCC(Nc3ccc(-c4ccccc4)cc3)CC2)OO1` (centres unmarked) [Compound 4ck, Biphenyl-4-yl-{3-[1-(4-Chloro-Phenyl)-Vinyl]-1,2,5-Trioxa-Spiro[5.5]undec-9-yl}-Amine], the inhibition in vivo at 96 mg/kg/day under setting [4] came out at 100%. Besides, the responders at 96 mg/kg/day under setting [5] is 40%.
